Experimental data as given in ChEMBL document CHEMBL1201862, “PubChem BioAssay data set” (2004).
Activity calls are given as the source filed them.

How the values were obtained:
[1] = target: T1, Microphthalmia-associated transcription factor (Homo sapiens, UniProt O75030); assay: reducers of TRPM1 reporter luminescence, concentration series – cell-based, SK-MEL-5, cherry-picked, set 3, MITF inhibitor project, dose response (AID 493073); type: functional;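 further: SK-MEL-5 melanoma cells with luciferase driven by the MITF target TRPM1 promoter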
T1 sequence (O75030 whole entry): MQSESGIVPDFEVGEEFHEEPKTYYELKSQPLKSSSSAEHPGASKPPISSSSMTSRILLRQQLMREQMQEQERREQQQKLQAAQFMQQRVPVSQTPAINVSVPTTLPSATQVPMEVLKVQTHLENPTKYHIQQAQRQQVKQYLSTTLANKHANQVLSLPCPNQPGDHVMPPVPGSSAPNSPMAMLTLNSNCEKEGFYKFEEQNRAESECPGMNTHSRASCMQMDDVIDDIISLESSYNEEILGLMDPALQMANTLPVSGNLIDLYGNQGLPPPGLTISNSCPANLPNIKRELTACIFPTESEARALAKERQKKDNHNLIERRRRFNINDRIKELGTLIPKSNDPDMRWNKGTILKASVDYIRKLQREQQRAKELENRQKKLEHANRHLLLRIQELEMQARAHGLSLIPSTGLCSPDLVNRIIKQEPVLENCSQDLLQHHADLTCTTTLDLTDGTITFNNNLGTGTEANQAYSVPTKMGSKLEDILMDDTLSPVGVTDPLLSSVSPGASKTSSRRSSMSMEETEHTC

Vero [2] = assay: cells; type: functional, cell-based; settings: Chlorocebus sabaeus
Vero [3] = assay: cells; type: functional; settings: Chlorocebus sabaeus
[4] = target: ATP-dependent molecular chaperone HSP82 (Candida albicans (strain WO-1) (Yeast), UniProt C4YTQ8); assay: steroid-induced GRE reporter decrease in yeast – S. cerevisiae, luminescence, Hsp90 inhibitor project, dose response (AID 2400); type: functional, cell-based;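 further: beta-galactosidase luminescence from glucocorticoid response element reporter as proxy for Hsp90 function; inhibitor potency where signal loss means Hsp90 inhibition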
Chain of ATP-dependent molecular chaperone HSP82 (C4YTQ8 whole entry): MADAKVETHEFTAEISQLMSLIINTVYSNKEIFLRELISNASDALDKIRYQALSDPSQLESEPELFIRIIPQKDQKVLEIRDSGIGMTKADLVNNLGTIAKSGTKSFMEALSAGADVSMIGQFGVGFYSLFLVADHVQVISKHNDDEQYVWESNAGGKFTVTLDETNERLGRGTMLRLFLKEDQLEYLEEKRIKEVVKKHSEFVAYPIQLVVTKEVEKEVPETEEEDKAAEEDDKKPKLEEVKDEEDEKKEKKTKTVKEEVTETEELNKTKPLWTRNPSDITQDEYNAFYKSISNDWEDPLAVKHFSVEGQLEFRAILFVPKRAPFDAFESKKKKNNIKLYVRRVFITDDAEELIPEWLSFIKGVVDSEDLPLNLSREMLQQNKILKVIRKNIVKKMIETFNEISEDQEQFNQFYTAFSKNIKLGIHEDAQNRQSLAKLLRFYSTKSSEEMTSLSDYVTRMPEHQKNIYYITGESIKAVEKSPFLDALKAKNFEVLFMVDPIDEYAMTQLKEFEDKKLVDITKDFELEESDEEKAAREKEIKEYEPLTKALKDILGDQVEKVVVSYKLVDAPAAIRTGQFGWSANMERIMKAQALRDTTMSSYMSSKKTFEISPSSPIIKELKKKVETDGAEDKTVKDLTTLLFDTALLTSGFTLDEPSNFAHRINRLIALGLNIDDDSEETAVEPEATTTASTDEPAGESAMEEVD

[5] = NIH-3T3 fibroblast cytotoxicity, dose response, cytotoxicity control, cell-based, fluorescence, Alamar Blue, secondary assay (AID 2327); type: functional;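 further: NIH-3T3 mouse fibroblasts cultured with fluconazole at 8 µg/mL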
[6] = target: T2, Serine/threonine-protein phosphatase (Candida dubliniensis (strain CD36 / CBS 7987 / NCPF 3949 / NRRLY-17841) (Yeast), UniProt B9W6M3); assay: blockers of CaCl2-induced CDRE-lacZ signaling – S. cerevisiae, luminescence, secondary, dose response (AID 2388); type: functional, cell-based;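 further: yeast reporter cells carrying a calcineurin-responsive lacZ construct stimulated with calcium chloride; luminescent beta-galactosidase reporter signal in whole cells rather than isolated phosphatase activity; potency for inhibition where a drop in reporter signal means calcineurin blockade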
T2 sequence (B9W6M3 whole entry): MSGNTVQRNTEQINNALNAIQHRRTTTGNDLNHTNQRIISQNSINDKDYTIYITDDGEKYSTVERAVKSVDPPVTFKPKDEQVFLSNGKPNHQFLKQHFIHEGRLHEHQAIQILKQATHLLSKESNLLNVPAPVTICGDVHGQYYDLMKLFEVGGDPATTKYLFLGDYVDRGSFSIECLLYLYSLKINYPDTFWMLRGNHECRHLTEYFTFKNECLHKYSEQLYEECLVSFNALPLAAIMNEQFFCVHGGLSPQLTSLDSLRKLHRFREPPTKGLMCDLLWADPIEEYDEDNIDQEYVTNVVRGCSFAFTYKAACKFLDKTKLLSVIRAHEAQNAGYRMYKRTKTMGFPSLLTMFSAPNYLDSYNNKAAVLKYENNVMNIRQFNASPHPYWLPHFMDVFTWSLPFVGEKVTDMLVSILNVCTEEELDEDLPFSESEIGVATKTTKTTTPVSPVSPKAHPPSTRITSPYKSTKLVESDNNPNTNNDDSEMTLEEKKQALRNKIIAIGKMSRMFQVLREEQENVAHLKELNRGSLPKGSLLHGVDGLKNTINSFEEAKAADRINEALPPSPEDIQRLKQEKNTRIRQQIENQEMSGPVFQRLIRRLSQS

[7] = fluconazole-exposed Candida albicans growth modulators – fluorescence, retest, confirmation (AID 2467); type: functional, cell-based
Caspase-6 = target: T3, Caspase-6 (Homo sapiens, UniProt P55212); assay: inhibition of CASP6 peptide cleavage – biochemical, VEID-R110 fluorescence, cherry-pick, dose response (AID 720632)
T3 sequence (P55212 whole entry): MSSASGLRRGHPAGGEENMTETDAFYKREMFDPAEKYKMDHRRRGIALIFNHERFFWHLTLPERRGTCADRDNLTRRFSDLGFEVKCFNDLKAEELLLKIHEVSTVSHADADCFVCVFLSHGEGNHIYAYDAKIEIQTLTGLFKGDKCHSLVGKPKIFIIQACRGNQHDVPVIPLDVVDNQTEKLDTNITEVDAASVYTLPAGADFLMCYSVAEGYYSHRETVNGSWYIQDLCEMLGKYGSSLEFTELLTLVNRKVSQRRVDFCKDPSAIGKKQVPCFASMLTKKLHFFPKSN

Mu-type opioid receptor = Mu-type opioid receptor (Homo sapiens, UniProt P35372); type: functional, cell-based;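 further: U2OS cells with beta-arrestin recruitment to OPRM1 by beta-gal complementation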
Chain of Mu-type opioid receptor (P35372 whole entry): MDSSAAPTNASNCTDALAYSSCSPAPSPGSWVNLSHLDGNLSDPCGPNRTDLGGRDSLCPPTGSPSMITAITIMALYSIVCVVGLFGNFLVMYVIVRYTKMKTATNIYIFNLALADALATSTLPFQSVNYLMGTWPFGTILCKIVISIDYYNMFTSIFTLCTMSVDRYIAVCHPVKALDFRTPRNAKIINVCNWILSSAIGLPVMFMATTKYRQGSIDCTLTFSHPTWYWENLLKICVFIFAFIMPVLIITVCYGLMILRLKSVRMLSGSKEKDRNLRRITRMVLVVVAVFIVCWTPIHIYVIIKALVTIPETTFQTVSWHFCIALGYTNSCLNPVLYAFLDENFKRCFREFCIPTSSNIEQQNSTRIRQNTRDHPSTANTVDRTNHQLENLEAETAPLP

[8] = target: T4, Heat shock factor protein 1 (Mus musculus, UniProt P38532); assay: decrease of HSF1-responsive luciferase luminescence – cell-based, NIH3T3, dose retest, confirmation (AID 2382); type: functional;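 further: NIH3T3 fibroblasts with HSF1-driven luciferase reporter stressed by proteasome inhibitor MG132; luminescence from HSF1-driven luciferase expression after 8 hours of MG132 stress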
T4 sequence (P38532 whole entry): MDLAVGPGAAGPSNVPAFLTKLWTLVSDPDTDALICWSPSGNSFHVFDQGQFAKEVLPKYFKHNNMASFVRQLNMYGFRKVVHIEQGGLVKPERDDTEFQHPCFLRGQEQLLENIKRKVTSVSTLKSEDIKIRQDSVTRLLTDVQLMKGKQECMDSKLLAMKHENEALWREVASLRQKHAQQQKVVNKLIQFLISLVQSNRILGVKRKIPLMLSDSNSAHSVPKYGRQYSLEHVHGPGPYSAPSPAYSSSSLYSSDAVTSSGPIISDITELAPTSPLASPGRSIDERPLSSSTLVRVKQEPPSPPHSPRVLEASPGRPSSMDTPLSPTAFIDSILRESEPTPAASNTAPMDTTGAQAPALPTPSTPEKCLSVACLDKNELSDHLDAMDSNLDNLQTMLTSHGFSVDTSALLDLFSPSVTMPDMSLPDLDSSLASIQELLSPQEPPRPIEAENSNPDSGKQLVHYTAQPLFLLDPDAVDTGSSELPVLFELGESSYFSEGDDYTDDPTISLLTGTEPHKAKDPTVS

[9] = target: 5-hydroxytryptamine receptor 2A (Mus musculus, UniProt P35363); type: functional, cell-based;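 further: CHO-K1 cells with tagged receptor and beta-arrestin; agonist potency measured as compound-induced activation of the receptor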
Chain of 5-hydroxytryptamine receptor 2A (P35363 whole entry): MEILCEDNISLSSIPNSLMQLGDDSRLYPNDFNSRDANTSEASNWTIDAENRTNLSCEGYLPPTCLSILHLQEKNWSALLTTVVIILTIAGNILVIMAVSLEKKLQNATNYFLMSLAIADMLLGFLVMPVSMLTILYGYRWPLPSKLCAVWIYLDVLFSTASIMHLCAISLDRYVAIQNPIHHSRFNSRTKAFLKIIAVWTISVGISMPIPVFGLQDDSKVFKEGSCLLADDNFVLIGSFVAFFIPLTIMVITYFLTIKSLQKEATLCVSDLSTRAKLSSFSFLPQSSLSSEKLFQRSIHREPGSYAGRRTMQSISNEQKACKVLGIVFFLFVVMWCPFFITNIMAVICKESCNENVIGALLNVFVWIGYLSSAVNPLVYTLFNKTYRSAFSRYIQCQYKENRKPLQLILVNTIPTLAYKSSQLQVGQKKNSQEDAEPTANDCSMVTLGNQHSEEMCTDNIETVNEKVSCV

Paired box protein Pax-8 = Paired box protein Pax-8 (Homo sapiens, UniProt Q06710); assay: PAX8 transcriptional activity inhibition in RMG-I – RMG-I cells, luciferase, cherry-pick, dose response (AID 687027); type: functional, cell-based;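 further: luciferase reporter driven by Pax8 target thyroperoxidase promoter measured by SteadyGlo luminescence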
Chain of Paired box protein Pax-8 (Q06710 whole entry): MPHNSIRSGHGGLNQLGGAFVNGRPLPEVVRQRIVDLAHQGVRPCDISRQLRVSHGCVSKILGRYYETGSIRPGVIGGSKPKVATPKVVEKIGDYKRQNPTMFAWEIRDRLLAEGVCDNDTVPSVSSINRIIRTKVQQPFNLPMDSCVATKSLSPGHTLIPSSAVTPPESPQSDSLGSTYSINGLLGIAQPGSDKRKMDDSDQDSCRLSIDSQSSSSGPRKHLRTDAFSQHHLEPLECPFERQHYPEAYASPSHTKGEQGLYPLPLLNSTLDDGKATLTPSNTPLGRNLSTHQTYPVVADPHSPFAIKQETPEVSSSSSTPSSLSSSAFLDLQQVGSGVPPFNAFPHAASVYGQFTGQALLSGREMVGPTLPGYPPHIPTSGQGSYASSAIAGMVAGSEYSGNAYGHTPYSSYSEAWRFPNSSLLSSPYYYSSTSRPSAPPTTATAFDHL

[10] = Counterscreen for activators of the function of SWI/SNF related, matrix associated, actin dependent regulator of chromatin, subfamily a, member 2 (SMARCA2, BRM): Luminescence-based cell-based high throughput dose response assay to identify non-selective compounds using the VP16 reporter assay.; type: functional
H9c2 = assay: cells; type: functional, cell-based; settings: Rattus norvegicus, H9c2, Myocardium;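 further: confirmatory concentration-response retest of ultra-high-throughput screening hits for modulation of myocardial damage; cell death induced by hydrogen peroxide oxidative stress; compound pretreatment for 60 min then peroxide exposure for 2 h; potency is for protecting the cells against peroxide damage rather than for killing them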
[11] = target: SWI/SNF-related matrix-associated actin-dependent regulator of chromatin subfamily A member 2 (Homo sapiens, UniProt P51531); assay: Luminescence-based cell-based high throughput dose response assay to identify activators of the function of SWI/SNF related, matrix associated, actin dependent regulator of chromatin, subfamily a, member 2 (SMARCA2, BRM).; type: functional
Chain of SWI/SNF-related matrix-associated actin-dependent regulator of chromatin subfamily A member 2 (P51531 whole entry): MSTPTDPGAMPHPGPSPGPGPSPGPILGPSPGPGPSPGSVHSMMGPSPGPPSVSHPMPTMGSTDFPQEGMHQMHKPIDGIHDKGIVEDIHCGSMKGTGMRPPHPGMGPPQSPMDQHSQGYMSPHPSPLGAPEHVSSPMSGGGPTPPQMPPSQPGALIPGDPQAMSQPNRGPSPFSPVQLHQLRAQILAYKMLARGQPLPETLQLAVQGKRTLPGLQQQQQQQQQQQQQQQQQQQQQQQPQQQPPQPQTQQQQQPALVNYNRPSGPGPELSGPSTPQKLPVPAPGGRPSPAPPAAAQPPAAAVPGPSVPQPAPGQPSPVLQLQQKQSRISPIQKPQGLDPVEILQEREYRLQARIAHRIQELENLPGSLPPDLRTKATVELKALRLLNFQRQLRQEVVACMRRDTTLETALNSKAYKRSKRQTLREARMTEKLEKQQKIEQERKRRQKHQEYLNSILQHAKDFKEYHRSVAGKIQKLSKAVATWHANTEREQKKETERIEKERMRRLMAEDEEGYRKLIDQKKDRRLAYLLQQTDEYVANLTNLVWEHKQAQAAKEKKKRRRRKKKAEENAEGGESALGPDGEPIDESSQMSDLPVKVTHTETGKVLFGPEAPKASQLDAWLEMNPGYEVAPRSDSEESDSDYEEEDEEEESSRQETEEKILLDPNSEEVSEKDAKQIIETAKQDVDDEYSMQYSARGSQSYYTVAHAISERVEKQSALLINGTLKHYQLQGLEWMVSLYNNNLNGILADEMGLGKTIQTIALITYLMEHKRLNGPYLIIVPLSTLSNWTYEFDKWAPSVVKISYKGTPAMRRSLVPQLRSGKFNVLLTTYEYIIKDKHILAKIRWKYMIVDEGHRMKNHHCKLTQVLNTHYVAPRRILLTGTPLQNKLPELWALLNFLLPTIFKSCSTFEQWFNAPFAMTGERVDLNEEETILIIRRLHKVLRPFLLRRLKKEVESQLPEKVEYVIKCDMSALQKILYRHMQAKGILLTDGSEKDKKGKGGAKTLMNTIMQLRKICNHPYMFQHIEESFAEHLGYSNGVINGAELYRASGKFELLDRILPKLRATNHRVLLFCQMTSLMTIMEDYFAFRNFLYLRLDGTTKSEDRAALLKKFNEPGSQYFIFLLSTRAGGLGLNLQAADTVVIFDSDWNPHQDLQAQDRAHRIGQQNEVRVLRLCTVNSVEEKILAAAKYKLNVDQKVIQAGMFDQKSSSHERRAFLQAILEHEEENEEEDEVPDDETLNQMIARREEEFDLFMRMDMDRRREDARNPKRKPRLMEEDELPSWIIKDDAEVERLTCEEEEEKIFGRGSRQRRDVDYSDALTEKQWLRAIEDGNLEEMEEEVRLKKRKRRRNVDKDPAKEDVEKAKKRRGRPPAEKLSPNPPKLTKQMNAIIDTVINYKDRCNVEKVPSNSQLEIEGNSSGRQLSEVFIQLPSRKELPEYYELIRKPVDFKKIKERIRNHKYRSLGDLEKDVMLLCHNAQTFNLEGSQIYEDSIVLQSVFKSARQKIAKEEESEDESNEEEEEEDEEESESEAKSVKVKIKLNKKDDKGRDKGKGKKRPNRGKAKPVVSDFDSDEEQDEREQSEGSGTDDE

[12] = target: T5, Rac GTPase-activating protein 1 (Homo sapiens, UniProt Q9H0H5); assay: blockers of MgcRacGAP-driven Rac1 GTP hydrolysis – biochemical, ADP Hunter fluorescence, primary and confirmatory, confirmation (AID 624330); type: functional
T5 sequence (Q9H0H5 whole entry): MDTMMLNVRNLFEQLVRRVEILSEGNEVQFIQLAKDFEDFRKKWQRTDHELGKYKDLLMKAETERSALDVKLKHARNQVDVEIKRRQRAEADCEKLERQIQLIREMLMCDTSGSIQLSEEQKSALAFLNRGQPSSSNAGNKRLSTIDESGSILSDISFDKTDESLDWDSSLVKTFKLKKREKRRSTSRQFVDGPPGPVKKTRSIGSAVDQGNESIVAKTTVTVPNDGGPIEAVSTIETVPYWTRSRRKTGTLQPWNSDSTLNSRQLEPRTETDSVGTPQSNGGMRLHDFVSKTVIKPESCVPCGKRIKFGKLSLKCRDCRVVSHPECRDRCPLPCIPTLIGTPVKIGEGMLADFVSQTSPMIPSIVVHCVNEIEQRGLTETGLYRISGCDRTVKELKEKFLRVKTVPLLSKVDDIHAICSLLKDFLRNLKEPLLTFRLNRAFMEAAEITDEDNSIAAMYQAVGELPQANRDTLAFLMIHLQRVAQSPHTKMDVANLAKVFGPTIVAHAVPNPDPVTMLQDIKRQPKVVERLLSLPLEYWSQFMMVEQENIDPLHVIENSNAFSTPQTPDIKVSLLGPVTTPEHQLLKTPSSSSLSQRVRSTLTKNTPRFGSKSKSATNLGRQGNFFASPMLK

[13] = target: T6, Polyadenylate-binding protein 1 (Homo sapiens, UniProt P11940); assay: MLLE domain peptide-binding blockers, IC50 – biochemical, fluorescence polarization, FITC-PAM2 peptide, dose response (AID 602259); type: functional; settings: read-out: IC50_Mean
T6 sequence (P11940 whole entry, the tested form may be a part): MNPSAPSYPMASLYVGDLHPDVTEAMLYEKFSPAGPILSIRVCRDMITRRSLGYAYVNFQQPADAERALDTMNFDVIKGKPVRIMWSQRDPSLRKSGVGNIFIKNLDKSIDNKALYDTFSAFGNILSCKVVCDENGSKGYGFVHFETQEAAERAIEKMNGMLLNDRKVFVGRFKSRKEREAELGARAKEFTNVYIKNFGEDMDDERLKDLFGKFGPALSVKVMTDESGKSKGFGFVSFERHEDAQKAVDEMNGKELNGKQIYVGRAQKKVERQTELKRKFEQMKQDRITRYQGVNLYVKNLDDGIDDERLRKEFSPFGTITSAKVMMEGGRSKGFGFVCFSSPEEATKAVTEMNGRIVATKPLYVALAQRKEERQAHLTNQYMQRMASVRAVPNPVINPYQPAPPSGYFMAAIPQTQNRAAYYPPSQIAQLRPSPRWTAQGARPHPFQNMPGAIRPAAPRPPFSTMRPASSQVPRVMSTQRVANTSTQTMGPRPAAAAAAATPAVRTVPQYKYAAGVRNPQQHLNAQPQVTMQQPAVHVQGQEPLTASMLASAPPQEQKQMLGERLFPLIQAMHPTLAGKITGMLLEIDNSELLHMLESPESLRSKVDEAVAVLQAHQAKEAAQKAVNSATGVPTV

[14] = target: T6, Polyadenylate-binding protein 1; assay: MLLE binding blockers, Cy5 peptide tracer – biochemical, fluorescence polarization, Cy5-PAM2 peptide, secondary, miRNA deadenylation inhibitor project, dose response (AID 602260); type: functional; settings: read-out: IC50_Mean

**Q.** Which AC50 [1] does the source give for `CC(C)C(CCNC1CCN(C)CC1)c1ccc(Cl)cc1` (configuration not stated) here?
**A.** 11.9 µM (active)

**Q.** What about the IC50 (Vero [2]) of the same compound?
**A.** > 25 µM (active)

**Q.** And the CC50 (Vero [3])?
**A.** 20.4 µM (active)

**Q.** For `O=C(c1cc2c(s1)CCCCC2)N1CCN(c2ncccn2)CC1`, which EC50 [4] is on record?
**A.** 23.9 µM (active)

**Q.** And the EC50 [5]?
**A.** > 160 µM (inconclusive)

**Q.** And the EC50 [6]?
**A.** > 180 µM (inactive)

**Q.** What about the EC50 [7] of the same compound?
**A.** 1200 nM (active)

**Q.** Which AC50 (Caspase-6) does the source give for `Cc1cc(C)cc(NC(=O)Cc2ccc(S(=O)(=O)N3CCCC3)s2)c1` here?
**A.** 24.2 µM (active)

**Q.** For `NC(=O)c1c(NC(=O)c2ccco2)sc2c1CCC2`, which EC50 [4] is on record?
**A.** > 150 µM (inactive)

**Q.** What about the EC50 [5] of the same compound?
**A.** > 150 µM (inactive)

**Q.** And the EC50 [6]?
**A.** > 180 µM (inactive)

**Q.** What about the EC50 [7] of the same compound?
**A.** 654 nM (inconclusive)

**Q.** For `c1ccc(COc2cccc(CN3CCN(c4ccccn4)CC3)c2)cc1`, which EC50 (Mu-type opioid receptor) is on record?
**A.** 92.5 µM (inactive)

**Q.** And the EC50 [8]?
**A.** > 195 µM (not active)

**Q.** And the EC50 [9]?
**A.** 22 nM (active)

**Q.** What does the source list for `NC(=O)c1ccsc1NC(=O)c1ccc([N+](=O)[O-])o1`?
**A.** AC50 (Paired box protein Pax-8): 3.8 µM (active); EC50 [10]: > 91.1 µM (inactive); IC50 (H9c2): > 79 µM (inactive); CC50 (Vero [3]): 11.7 µM (active); EC50 [11]: > 91.1 µM (inactive)

**Q.** For `O=C(NCc1ccco1)c1sc(=S)n2c1[nH]c(=O)c1ccccc12`, which IC50 [12] is on record?
**A.** 75.6 µM (active)

**Q.** What about the IC50 [13] of the same compound?
**A.** > 66 µM (inactive)

**Q.** What about the EC50 [4] of the same compound?
**A.** > 160 µM (inactive)

**Q.** What about the EC50 [5] of the same compound?
**A.** > 160 µM (inactive)

**Q.** And the EC50 [6]?
**A.** > 180 µM (inactive)

**Q.** What about the IC50 [14] of the same compound?
**A.** > 66 µM (inactive)

**Q.** And the EC50 [7]?
**A.** 837 nM (active)
